Test results taken from ChEMBL document CHEMBL3879901, “Substituted isoquinolin-1(2H)-ones, and methods of use thereof” (2012).

What was measured:
[1] = molecular target: PI3-kinase p110-delta/p85-alpha (Homo sapiens, UniProt O00329); experiment: Inhibition of N-terminal His6-tagged recombinant full-length human p110delta/untagged recombinant full length p85alpha expressed in baculovirus infected Sf21 cells using phosphatidylinositol as substrate in presence of gamma-32P-ATP after 5 mins by thin layer chromatographic method
Chain of PI3-kinase p110-delta/p85-alpha (P27986 whole entry): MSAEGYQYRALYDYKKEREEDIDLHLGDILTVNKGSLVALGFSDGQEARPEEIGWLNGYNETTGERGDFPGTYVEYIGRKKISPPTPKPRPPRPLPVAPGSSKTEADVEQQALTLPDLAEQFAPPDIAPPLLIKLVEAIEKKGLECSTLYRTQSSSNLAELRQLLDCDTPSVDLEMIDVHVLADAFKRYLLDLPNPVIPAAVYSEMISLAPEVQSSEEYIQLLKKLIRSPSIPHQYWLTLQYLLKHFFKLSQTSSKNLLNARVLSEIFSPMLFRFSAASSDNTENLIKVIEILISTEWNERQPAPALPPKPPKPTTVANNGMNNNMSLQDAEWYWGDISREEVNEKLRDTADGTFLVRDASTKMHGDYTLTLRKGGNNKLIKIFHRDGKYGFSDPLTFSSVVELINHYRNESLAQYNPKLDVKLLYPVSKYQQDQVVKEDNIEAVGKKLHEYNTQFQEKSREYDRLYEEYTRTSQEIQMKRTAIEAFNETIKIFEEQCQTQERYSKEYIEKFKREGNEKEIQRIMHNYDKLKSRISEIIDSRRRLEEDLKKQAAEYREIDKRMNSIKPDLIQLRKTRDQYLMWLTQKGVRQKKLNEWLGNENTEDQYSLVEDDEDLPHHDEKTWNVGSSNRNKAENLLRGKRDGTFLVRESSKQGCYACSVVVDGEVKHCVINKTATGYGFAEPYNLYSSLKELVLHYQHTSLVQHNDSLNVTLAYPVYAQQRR
Chain of PI3-kinase p110-delta/p85-alpha (O00329 whole entry): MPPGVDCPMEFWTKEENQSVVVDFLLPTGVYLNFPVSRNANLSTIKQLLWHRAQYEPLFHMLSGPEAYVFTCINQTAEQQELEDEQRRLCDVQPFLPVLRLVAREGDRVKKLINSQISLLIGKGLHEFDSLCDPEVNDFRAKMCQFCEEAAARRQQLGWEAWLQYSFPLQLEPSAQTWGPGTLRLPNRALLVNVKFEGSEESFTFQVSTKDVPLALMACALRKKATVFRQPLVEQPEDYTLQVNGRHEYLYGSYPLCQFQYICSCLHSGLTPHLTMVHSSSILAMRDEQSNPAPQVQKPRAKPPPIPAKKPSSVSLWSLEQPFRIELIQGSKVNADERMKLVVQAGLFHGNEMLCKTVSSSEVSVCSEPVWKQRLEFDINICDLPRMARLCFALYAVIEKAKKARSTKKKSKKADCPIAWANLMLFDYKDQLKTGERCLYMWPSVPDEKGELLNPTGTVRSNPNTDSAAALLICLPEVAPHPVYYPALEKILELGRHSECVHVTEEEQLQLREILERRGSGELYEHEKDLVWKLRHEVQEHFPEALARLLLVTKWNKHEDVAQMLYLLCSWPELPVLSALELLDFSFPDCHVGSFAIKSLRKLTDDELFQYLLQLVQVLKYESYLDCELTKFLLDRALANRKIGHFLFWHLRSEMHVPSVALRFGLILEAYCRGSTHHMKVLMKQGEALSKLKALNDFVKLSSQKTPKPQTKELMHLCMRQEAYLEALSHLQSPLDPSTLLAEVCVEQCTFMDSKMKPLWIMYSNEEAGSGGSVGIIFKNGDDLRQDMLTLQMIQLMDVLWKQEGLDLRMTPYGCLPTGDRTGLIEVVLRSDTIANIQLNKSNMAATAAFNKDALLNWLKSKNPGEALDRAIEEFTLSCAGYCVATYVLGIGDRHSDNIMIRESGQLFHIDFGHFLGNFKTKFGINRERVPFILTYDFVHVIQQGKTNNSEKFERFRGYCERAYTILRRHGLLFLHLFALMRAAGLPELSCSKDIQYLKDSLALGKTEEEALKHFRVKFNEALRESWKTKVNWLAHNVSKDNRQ

[2] = Antiproliferative activity against Balb/c mouse splenic B cells preincubated for 30 mins followed by LPS or F(ab')2 donkey anti-mouse IgM and recombinant mouse IL4 stimulation measured after 72 hrs by Alamar Blue reduction assay; type: functional, cell-based
[3] = molecular target: PI3-kinase p110-alpha/p85-alpha (Homo sapiens, UniProt P42336); experiment: Inhibition of N-terminal His6-tagged recombinant full-length human p110alpha/untagged recombinant full length human p85alpha expressed in baculovirus infected Sf21 cells using phosphatidylinositol as substrate in presence of gamma-32P-ATP after 5 mins by thin layer chromatographic method
Chain of PI3-kinase p110-alpha/p85-alpha (P27986 whole entry): as the sequence (P27986 whole entry) above
Chain of PI3-kinase p110-alpha/p85-alpha (P42336 whole entry): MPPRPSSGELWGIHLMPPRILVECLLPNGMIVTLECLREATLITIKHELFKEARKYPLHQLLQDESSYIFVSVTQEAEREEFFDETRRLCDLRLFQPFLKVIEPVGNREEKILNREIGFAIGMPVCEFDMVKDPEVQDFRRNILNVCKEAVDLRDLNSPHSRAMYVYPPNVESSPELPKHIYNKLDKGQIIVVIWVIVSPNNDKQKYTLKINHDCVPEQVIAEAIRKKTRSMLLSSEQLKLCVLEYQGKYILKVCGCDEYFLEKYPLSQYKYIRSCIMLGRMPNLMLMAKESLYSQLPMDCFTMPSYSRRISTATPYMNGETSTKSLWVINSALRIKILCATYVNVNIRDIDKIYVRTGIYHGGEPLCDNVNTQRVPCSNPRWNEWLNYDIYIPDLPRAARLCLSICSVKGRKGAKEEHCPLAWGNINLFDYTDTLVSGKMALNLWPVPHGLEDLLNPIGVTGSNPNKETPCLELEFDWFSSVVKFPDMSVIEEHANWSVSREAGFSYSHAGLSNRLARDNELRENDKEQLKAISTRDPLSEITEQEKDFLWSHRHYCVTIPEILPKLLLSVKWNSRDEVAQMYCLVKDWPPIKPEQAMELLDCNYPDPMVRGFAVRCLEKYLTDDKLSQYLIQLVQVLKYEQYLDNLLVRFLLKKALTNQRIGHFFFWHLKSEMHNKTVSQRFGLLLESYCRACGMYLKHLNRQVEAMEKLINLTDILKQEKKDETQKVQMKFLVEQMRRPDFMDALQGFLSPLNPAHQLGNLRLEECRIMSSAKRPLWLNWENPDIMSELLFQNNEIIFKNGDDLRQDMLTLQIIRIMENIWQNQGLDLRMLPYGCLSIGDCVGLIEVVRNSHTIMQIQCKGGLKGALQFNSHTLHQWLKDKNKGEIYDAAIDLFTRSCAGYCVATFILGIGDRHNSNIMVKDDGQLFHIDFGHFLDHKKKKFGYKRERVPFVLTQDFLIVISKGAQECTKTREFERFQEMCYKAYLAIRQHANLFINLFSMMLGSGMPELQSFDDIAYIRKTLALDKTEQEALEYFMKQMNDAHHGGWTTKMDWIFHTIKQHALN

PI3K p110 beta/p85 alpha = PI3K p110 beta/p85 alpha (Homo sapiens, UniProt P42338); experiment: Inhibition of N-terminal His6-tagged recombinant full-length human p110beta/untagged recombinant full length p85alpha expressed in baculovirus infected Sf21 cells using phosphatidylinositol as substrate in presence of gamma-32P-ATP after 5 mins by thin layer chromatographic method
Chain of PI3K p110 beta/p85 alpha (P27986 whole entry, canonical isoform): as the sequence (P27986 whole entry) above
Chain of PI3K p110 beta/p85 alpha (P42338 whole entry, canonical isoform): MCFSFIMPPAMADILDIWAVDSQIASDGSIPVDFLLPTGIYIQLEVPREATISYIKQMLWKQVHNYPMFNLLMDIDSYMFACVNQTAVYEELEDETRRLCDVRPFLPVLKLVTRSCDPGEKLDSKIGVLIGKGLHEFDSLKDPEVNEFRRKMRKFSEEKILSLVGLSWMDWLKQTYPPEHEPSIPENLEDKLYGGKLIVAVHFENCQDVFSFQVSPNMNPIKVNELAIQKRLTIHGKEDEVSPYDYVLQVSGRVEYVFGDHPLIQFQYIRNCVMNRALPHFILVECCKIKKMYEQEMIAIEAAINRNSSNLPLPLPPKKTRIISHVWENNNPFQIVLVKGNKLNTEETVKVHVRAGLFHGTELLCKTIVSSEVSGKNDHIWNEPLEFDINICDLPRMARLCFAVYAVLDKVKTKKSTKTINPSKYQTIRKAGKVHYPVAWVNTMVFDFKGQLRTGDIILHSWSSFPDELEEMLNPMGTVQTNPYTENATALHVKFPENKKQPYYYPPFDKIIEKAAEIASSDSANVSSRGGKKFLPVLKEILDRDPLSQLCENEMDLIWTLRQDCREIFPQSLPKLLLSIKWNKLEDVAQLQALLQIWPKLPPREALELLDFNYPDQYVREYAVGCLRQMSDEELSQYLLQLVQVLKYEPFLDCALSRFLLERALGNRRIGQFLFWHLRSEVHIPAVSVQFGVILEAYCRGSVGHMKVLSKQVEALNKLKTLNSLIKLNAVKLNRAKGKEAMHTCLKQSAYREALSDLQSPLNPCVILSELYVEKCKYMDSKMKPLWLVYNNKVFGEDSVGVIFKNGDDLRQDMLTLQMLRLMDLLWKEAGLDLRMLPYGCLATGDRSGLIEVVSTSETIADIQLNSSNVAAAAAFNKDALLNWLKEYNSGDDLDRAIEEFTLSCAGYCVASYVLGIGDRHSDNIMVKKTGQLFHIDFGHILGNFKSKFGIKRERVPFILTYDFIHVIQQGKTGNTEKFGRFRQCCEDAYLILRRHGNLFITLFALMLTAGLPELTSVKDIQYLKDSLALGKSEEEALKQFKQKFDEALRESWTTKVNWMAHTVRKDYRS

[4] = molecular target: Phosphatidylinositol 4,5-bisphosphate 3-kinase catalytic subunit gamma isoform (Homo sapiens, UniProt P48736); experiment: Inhibition of recombinant human C-terminal His6-tagged p110gamma expressed in insect cells using phosphatidylinositol as substrate in presence of gamma-32P-ATP after 5 mins by thin layer chromatographic method
Chain of Phosphatidylinositol 4,5-bisphosphate 3-kinase catalytic subunit gamma isoform (P48736 whole entry, canonical isoform): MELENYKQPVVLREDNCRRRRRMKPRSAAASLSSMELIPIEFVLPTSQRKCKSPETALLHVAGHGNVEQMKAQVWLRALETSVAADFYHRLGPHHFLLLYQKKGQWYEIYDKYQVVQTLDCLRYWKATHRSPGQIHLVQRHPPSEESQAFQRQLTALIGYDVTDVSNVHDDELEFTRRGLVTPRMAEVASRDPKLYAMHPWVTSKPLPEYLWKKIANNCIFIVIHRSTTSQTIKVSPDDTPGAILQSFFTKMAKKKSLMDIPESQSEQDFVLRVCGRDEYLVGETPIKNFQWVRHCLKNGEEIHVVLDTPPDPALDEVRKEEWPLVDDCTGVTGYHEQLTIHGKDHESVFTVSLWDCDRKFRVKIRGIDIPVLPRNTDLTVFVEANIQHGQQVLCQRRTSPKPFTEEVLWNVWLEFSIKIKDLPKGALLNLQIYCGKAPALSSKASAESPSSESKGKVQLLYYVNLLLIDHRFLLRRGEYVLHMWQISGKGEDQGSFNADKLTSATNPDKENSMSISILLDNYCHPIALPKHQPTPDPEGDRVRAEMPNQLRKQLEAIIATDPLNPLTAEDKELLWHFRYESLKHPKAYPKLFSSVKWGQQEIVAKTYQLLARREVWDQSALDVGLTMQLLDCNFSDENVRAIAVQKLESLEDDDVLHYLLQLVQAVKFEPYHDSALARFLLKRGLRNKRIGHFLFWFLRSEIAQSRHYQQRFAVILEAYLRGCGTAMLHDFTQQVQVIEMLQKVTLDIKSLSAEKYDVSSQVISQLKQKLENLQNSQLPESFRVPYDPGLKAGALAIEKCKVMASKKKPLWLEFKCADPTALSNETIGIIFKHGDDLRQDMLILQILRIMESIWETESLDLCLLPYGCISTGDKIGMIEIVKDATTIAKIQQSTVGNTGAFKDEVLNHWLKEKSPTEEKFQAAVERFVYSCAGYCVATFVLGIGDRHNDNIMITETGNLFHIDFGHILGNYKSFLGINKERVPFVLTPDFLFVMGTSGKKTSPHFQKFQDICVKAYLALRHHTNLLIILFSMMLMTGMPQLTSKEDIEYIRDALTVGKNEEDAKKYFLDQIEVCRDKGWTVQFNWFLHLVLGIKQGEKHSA

Row | SMILES | IC50 [1] | EC50 [2] | IC50 [3] | IC50 (PI3K p110 beta/p85 alpha) | IC50 [4]
1 | Cc1ccccc1-n1c(Cn2nc(/C=C3/SC(=O)NC3=O)c3c(N)ncnc32)cc2cccc(C)c2c1=O | < 0.1 µM | < 0.1 µM | < 10 µM | < 10 µM | < 0.1 µM
2 | Cc1ccccc1-n1c(Cn2nc(-c3cccc(Cl)c3)c3c(N)ncnc32)cc2cccc(C)c2c1=O | < 10 µM | < 10 µM | > 10 µM | > 10 µM | < 1 µM
3 | COc1cc(-c2nn(Cc3cc4cccc(C)c4c(=O)n3-c3ccccc3F)c3ncnc(N)c23)ccc1Cl | < 10 µM | < 10 µM | > 10 µM | > 10 µM | < 1 µM
4 | Cc1cccc2cc(Cn3nc(-c4cn[nH]c4)c4c(N)ncnc43)n(-c3cccc(F)c3)c(=O)c12 | < 0.1 µM | < 0.1 µM | > 10 µM | > 10 µM | < 1 µM
5 | Cc1ccccc1-n1c(Cn2nc(-c3cnn(CCO)c3)c3c(N)ncnc32)cc2cccc(C)c2c1=O |  | < 1 µM | > 10 µM | > 10 µM | < 1 µM
6 | COc1ccccc1-n1c(Cn2nc(C#C[C@@H](C)O)c3c(N)ncnc32)cc2cccc(C)c2c1=O | < 0.1 µM | < 1 µM | > 10 µM | > 10 µM | < 1 µM
7 | Cc1cccc2cc(Cn3nc(Cl)c4c(N)ncnc43)n(-c3ccccc3F)c(=O)c12 | < 1 µM | < 1 µM | > 10 µM | > 10 µM | < 10 µM
8 | Cc1ccccc1-n1c(Cn2nc(C#C[C@@H](C)O)c3c(N)ncnc32)cc2cccc(F)c2c1=O | < 1 µM | < 10 µM | > 10 µM | > 10 µM | > 10 µM
9 | Cc1ccccc1-n1c(Cn2nc(I)c3c(N)ncnc32)cc2cccc(C)c2c1=O | < 0.1 µM | 0.1 to 1 µM | > 10 µM | > 10 µM | 0.1 to 1 µM
10 | Cc1cccc2cc(Cn3nc(-c4cn[nH]c4)c4c(N)ncnc43)n(-c3ccccc3Cl)c(=O)c12 | 0.1 to 10 µM | < 0.1 µM | > 10 µM | > 10 µM | < 1 µM
11 | Cc1cccc2cc(Cn3nc(C#C[C@@H](C)O)c4c(N)ncnc43)n(-c3ccccc3O)c(=O)c12 | < 0.1 µM | < 1 µM | > 10 µM | > 10 µM | < 10 µM
12 | Cc1ccccc1-n1c(Cn2nc(-c3cc(O)cc(F)c3)c3c(N)ncnc32)cc2cccc(F)c2c1=O | < 0.1 µM | < 0.1 µM | > 10 µM | < 10 µM | < 1 µM
13 | COc1ccccc1-n1c(Cn2nc(I)c3c(N)ncnc32)cc2cccc(C)c2c1=O | < 0.1 µM | < 1 µM | > 10 µM | > 10 µM | < 1 µM
14 | Cc1cccc2cc(Cn3nc(C#CCO)c4c(N)ncnc43)n(-c3ccccc3F)c(=O)c12 | < 0.1 µM | < 1 µM | > 10 µM | > 10 µM | < 1 µM
15 | Cc1ccccc1-n1c(Cn2nc(C#CCO)c3c(N)ncnc32)cc2cccc(C)c2c1=O | < 0.1 µM | < 1 µM | > 10 µM | > 10 µM | < 1 µM
16 | Cc1cccc2cc(Cn3nc(I)c4c(N)ncnc43)n(-c3ccccc3OCCN3CCOCC3)c(=O)c12 | < 0.1 µM | < 1 µM | > 10 µM | > 10 µM | < 1 µM
17 | Cc1cccc2cc(Cn3nc(C#N)c4c(N)ncnc43)n(-c3ccccc3F)c(=O)c12 | < 0.1 µM | < 1 µM | > 10 µM | > 10 µM | > 10 µM
18 | Cc1cccc2cc(Cn3nc(-c4cnn(CCO)c4)c4c(N)ncnc43)n(-c3ccccc3F)c(=O)c12 | < 0.1 µM | 1 to 10 µM | > 10 µM | > 10 µM | < 1 µM
19 | Cc1cccc2cc(Cn3nc(/C=C4/SC(=O)NC4=O)c4c(N)ncnc43)n(-c3ccccc3F)c(=O)c12 | < 0.1 µM | < 0.1 µM | < 10 µM | < 10 µM | < 0.1 µM
20 | Cc1ccccc1-n1c(Cn2nc(C#CC3CC3)c3c(N)ncnc32)cc2cccc(C)c2c1=O | < 1 µM | < 1 µM | > 10 µM | > 10 µM | < 1 µM
21 | Cc1cccc2cc(Cn3nc(C#C[C@@H](C)O)c4c(N)ncnc43)n(-c3ccccc3F)c(=O)c12 | < 0.1 µM | < 1 µM | > 10 µM | > 10 µM | < 1 µM
22 | Cc1cccnc1-n1c(Cn2nc(-c3cccc(O)c3)c3c(N)ncnc32)cc2cccc(C)c2c1=O | < 0.1 µM | < 0.1 µM | > 10 µM | > 10 µM | < 1 µM
